How the values were obtained:
[1] = tested on: male CD-1 mice; experiment: tail suspension test (immobility time); format: in vivo
Excerpt: Antidepressant Effects: The tail suspension methodology was used to assess compounds for their antidepressant effects. The methodology was adapted from the original description by Stem et al. (Stem L, et al., Psychopharmacol 85:367-70, 1985; Stem L, et al., Prog Neuro-Psychopharmacol & Biol Psychiat 11:659-71, 1987) and later modifications by Crowley et al. (Crowley J J, et al., Pharmacol Biochem Beh 78(2):269-74, 2004). Seven- to eight-week-old (25-35 grams) male, CD-1 mice were housed for one week prior to testing. Mice (n=8-10 per dose group) were dosed intraperitoneally (ip) or orally (po) with the compound under investigation, and returned to their home cage for the appropriate pretreatment interval (45-60 min). Using tape, the mice were then suspended by the tail from a strain gauge. Activity over the next 6 minutes was scored by computer as either: 1) Immobility, 2) Escape Behavior or 3) Major Escape Behavior, based on the intensity of movements registered by the strain gauge. Total Immobility was calculated and expressed in seconds. […] Treatment effects are presented in Table 1 and FIGS. 1-6 as both raw Time Spent Immobile (in seconds±SEM [standard error of the mean]) and as % Reduction in Immobility=[1−(Treatment Immobility/Vehicle Immobility)]×100%. Similar superscripts in the Dose column of Table 1 denote values derived from the same experiment (to facilitate comparisons between individual treatments and co-administrations). Statistical analyses were performed using a 1-way ANOVA (analysis of variance) followed by a Bonferroni multiple comparison test with the overall alpha set at 0.05. In Table 1, asterisks (*) denote significant effects compared to vehicle-treated mice, while letters (a or b) denote significant effects compared to mice treated with a single compound (“a” for significance from antidepressant and “b” for significance from telenzepine). In Table 1, the symbol denotes p<0.05, two symbols denote p<0.01 and three symbols denote p<0.001). The symbols used for denoting statistical significance may be different in the corresponding figures.

[2] = tested on: mice and rats; conditions: administered systemically; cited from earlier work
[3] = tested on: dopamine efflux in the striatum; conditions: local microinjection; cited from earlier work
[4] = tested on: cortical receptors; conditions: cited from earlier work
[5] = tested on: cardiac receptors; conditions: cited from earlier work
[6] = tested on: muscarinic receptor; conditions: cited from earlier work
[7] = tested on: GABA efflux; conditions: directly injected into the midbrain; cited from earlier work
[8] = at 90 degrees; cited from earlier work

With `CN1CCN(CC(=O)N2c3ccccc3C(=O)Nc3cccnc32)CC1` [Pirenzepine, 5,11-Dihydro-11-[(4-methyl-1-piperazinyl)acetyl]-6H-pyrido[2,3-b][1,4]benzodiazepin-6-one] as the compound, how does the “Reduction in Immobility” value ([1]; 5 mg/kg ip, experiment f) read?
The value was −11%.

What about the “Treatment Immobility Time” value ([1]; 5 mg/kg ip, experiment f) of the same compound?
The value was 137 ± 15 s.

What about the “Reduction in Immobility” value ([1]; 25 mg/kg ip, experiment f) of the same compound?
The value was 27%.

And the “Treatment Immobility Time” value ([1]; 25 mg/kg ip, experiment f)?
Its value is 90 ± 17 s.

What about the “Reduction in Immobility” value ([1]; 50 mg/kg ip, experiment f) of the same compound?
The value was 38%.

What about the “Treatment Immobility Time” value ([1]; 50 mg/kg ip, experiment f) of the same compound?
Its value is 76 ± 12 s.

And the “effect on immobility (in words)” value ([1]; alone at 50 mg/kg ip (FIG. 1))?
Its value is “significant reduction in immobility”.

And the behavioral effects [2]?
The behavioral effects was “failed to elicit any behavioral effects”.

And the “dopamine efflux in the striatum” value [3]?
Its value is “decreased dopamine efflux in the striatum”.

With `CNCCC(Oc1ccc(C(F)(F)F)cc1)c1ccccc1` (stereo not shown) [Fluoxetine, fluoxetine] as the compound, how does the “Reduction in Immobility” value ([1]; 4 mg/kg ip, experiment c) read?
The value was 0%.

What about the “Treatment Immobility Time” value ([1]; 4 mg/kg ip, experiment c) of the same compound?
Its value is 97 ± 11 s.

What about the “Reduction in Immobility” value ([1]; 4 mg/kg ip, experiment g) of the same compound?
The value was 45%.

What about the “Treatment Immobility Time” value ([1]; 4 mg/kg ip, experiment g) of the same compound?
The value was 81 ± 16 s.

What about the “Reduction in Immobility” value ([1]; 20 mg/kg ip, experiment g) of the same compound?
Its value is 45%.

And the “Treatment Immobility Time” value ([1]; 20 mg/kg ip, experiment g)?
Its value is 82 ± 16 s.

What about the “Reduction in Immobility” value ([1]; 40 mg/kg ip, experiment g) of the same compound?
Its value is 64%.

And the “Treatment Immobility Time” value ([1]; 40 mg/kg ip, experiment g)?
Its value is 53 ± 14 s.

What about the “lowering of the effective antidepressant dose (estimated)” value ([1]; to 4 mg/kg by co-administering 10 mg/kg TZP) of the same compound?
Its value is “approximately 7 fold”.

Which “factor by which the (+) form is more effective than the (−) isomer” value [4] does the source give for `Cc1scc2c1N(C(=O)CN1CCN(C)CC1)c1ccccc1NC2=O` [(+) form of telenzepine] here?
The value was 400.

What about the “factor by which the (+) form is more potent than the (−) form” value [5] of the same compound?
Its value is 50.

And the antimuscarinic activity [6]?
Its antimuscarinic activity is “potent antimuscarinic activity”.

What does the source list for `COc1ccc(C(CN(C)C)C2(O)CCCCC2)cc1` (stereo not shown) [Venlafaxine, venlafaxine]?
Reduction in Immobility ([1]; 3 mg/kg ip, experiment i): 8%; Treatment Immobility Time ([1]; 3 mg/kg ip, experiment i): 103 ± 21 s; Reduction in Immobility ([1]; 10 mg/kg ip, experiment b): 10%; Treatment Immobility Time ([1]; 10 mg/kg ip, experiment b): 103 ± 15 s; Reduction in Immobility ([1]; 10 mg/kg ip, experiment i): −4%; Treatment Immobility Time ([1]; 10 mg/kg ip, experiment i): 116 ± 20 s; Reduction in Immobility ([1]; 30 mg/kg ip, experiment i): 72%; Treatment Immobility Time ([1]; 30 mg/kg ip, experiment i): 31 ± 09 s; Reduction in Immobility ([1]; 30 mg/kg ip, experiment i, listed as venlafaxine): 72%; lowering of the effective antidepressant dose ([1]; to 10 mg/kg by co-administering 5 mg/kg telenzepine): 3 fold

With `Cc1scc2c1N(C(=O)CN1CCN(C)CC1)c1ccccc1NC2=O` [(−) form] as the compound, how does the antimuscarinic activity [6] read?
Its antimuscarinic activity is “considerably less active”.

Which results are given for `Cc1scc2c1N(C(=O)CN1CCN(C)CC1)c1ccccc1NC2=O` [Telenzepine, 4,9-Dihydro-3-methyl-4-[(4-methyl-1-piperazinyl)acetyl]-10H-thieno[3,4-b][1,5]benzodiazepin-10-one]?
GABA efflux [7]: reduced GABA efflux; Reduction in Immobility ([1]; 5 mg/kg ip, experiment a): 30%; Treatment Immobility Time ([1]; 5 mg/kg ip, experiment a): 80 ± 14 s; Reduction in Immobility ([1]; 5 mg/kg ip, experiment b): 21%; Treatment Immobility Time ([1]; 5 mg/kg ip, experiment b): 90 ± 18 s; Reduction in Immobility ([1]; 5 mg/kg ip, experiment d): −27%; Treatment Immobility Time ([1]; 5 mg/kg ip, experiment d): 159 ± 23 s; Reduction in Immobility ([1]; 10 mg/kg ip, experiment c): 34%; Treatment Immobility Time ([1]; 10 mg/kg ip, experiment c): 64 ± 15 s; Reduction in Immobility ([1]; 25 mg/kg ip, experiment d): 33%; Treatment Immobility Time ([1]; 25 mg/kg ip, experiment d): 84 ± 07 s; Reduction in Immobility ([1]; 50 mg/kg ip, experiment d): 51%; Treatment Immobility Time ([1]; 50 mg/kg ip, experiment d): 61 ± 11 s; Reduction in Immobility ([1]; 60 mg/kg po, experiment e): 45%; Treatment Immobility Time ([1]; 60 mg/kg po, experiment e): 71 ± 15 s; Reduction in Immobility ([1]; 80 mg/kg po, experiment e): 37%; Treatment Immobility Time ([1]; 80 mg/kg po, experiment e): 82 ± 18 s; Reduction in Immobility ([1]; 100 mg/kg po, experiment e): 55%; Treatment Immobility Time ([1]; 100 mg/kg po, experiment e): 59 ± 10 s; effect on immobility (in words) ([1]; alone at 25 mg/kg ip (FIG. 2)): significant reduction in immobility; effect on immobility (in words) ([1]; alone at 60 mg/kg po (FIG. 3)): significant reduction in immobility; half time of interconversion of the two forms [8]: approximately 200 hours

For `CN[C@H]1CC[C@@H](c2ccc(Cl)c(Cl)c2)c2ccccc21` [Sertraline, sertraline], which “Reduction in Immobility” value ([1]; 1 mg/kg ip, experiment a) is on record?
Its value is 24%.

And the “Treatment Immobility Time” value ([1]; 1 mg/kg ip, experiment a)?
The value was 87 ± 14 s.

What about the “Reduction in Immobility” value ([1]; 5 mg/kg ip, experiment h) of the same compound?
The value was 48%.

What about the “Treatment Immobility Time” value ([1]; 5 mg/kg ip, experiment h) of the same compound?
The value was 63 ± 08 s.

What about the “Reduction in Immobility” value ([1]; 5 mg/kg ip, experiment h, listed as sertraline) of the same compound?
Its value is 48%.

What about the “Reduction in Immobility” value ([1]; 20 mg/kg ip, experiment h) of the same compound?
The value was 59%.

What about the “Treatment Immobility Time” value ([1]; 20 mg/kg ip, experiment h) of the same compound?
Its value is 50 ± 16 s.

What about the “Reduction in Immobility” value ([1]; 40 mg/kg ip, experiment h) of the same compound?
The value was 64%.

What about the “Treatment Immobility Time” value ([1]; 40 mg/kg ip, experiment h) of the same compound?
The value was 44 ± 15 s.

What about the “lowering of the effective antidepressant dose” value ([1]; to 1 mg/kg by co-administering 5 mg/kg TZP) of the same compound?
The value was 5 fold.

Reference: patent US8735389B2, “Treating psychological conditions using muscarinic receptor M1 antagonists” (priority 2006, dated 2014)
